Measurements as given in PMC8614864, “Bioengineered System for High Throughput Screening of Kv1 Ion Channel Blockers” (Bioengineering, 2021).
Where two headings read alike, the source gives them in different places.

Key:
[1] = biological target: KcsA-Kv1.3-RFP; test: Direct titration of GFP-labeled toxins on spheroplasts by flow cytometry; settings: slope by linear fitting of reduced data (maximum of normal distribution along GFP axis); one-site binding curve; 90–120 min incubation, 50 mM Tris–HCl pH 7.5 binding buffer; Mean ± SD (SD from fit, single dataset)
[2] = system: KcsA-Kv1.3-RFP; test: as above; assay type: binding
Procedure: Spheroplasts were prepared according to the previously developed protocol. Briefly, E. coli cells (BL21 (DE3) strain) transformed with pET28a-KcsA-Kv1.3-RFP plasmid were cultivated in a minimal M9 medium at 37 °C up to OD560 = 0.8, then induced with 50 μM IPTG and further grown for 18 h. Cells were harvested by centrifugation (5000× g, 10 min, 4 °C), incubated in buffer A (10 mM Tris–HCl, pH 8.0, 0.5 m sucrose) containing lysozyme (20 μg/mL) for 7 min on ice, then diluted twofold with buffer B (10 mM Tris–HCl, pH 8.0, 0.3 mM ethylenediamine tetraacetic acid) and further incubated for 20 min. Then MgCl2 was added to a final concentration of 10 mM to stabilize the spheroplasts. Obtained in this way, the spheroplast suspension has OD560 of about 0.5 and was diluted for binding assay as described further.
For ligand binding analysis, a series of ligand dilutions were prepared in 12 × 75 mm flow cytometry test tubes. For this, 45 µL of toxin solution with a ten times higher concentration than the maximal concentration on titration curve was prepared. This solution was serially diluted with 3.16-fold step (13.9 µL of toxin solution + 30 µL buffer). These toxin dilutions were supplemented with 270 µL of spheroplast suspension at 10^6 cells/mL to give 300 µL final reaction mixtures. For analysis of displacement of GFP-labeled toxins by unlabeled toxins, spheroplast suspensions were supplemented with 1.1× concentration of GFP-labeled toxin before mixing with unlabeled toxin dilutions. All dilutions were made in a binding buffer: 0.25 M sucrose, […], 2 mM KCl, 50 mM NaCl, 10 mM MgCl2, 0.2% BSA and 50 mM Tris–HCl, pH 7.5.
To ensure equilibrium conditions, we analyzed samples after 90–120 min of incubation without removing toxins. Data acquisition was carried out with FC-500 flow cytometer (Beckman Coulter, Brea, CA, USA) using 488 nm excitation for both GFP and RFP and fluorescence detection with FL1 (505–545 nm) and FL3 (610–630 nm) channels for GFP and RFP, respectively. To minimize background fluorescence, samples were run at low speed that gave approx. 100–500 events/s. Events were triggered by side scatting (SSC) so that RFP-labeled cells constituted approx. 30% of events (Figure 2). Remaining events were also present in the samples of filtered binding buffer without cells, so were likely to be related to system noise (either electronic or optical) but not to the dim spheroplasts.
Automated data analysis was performed by a dedicated script after pre-processing with commercial software. The script was available in user-friendly Jupyter notebook format where data were processed stepwise, and user input-output was realized through an internet browser. This script is designed to process multiple datasets at once and can be easily adjusted for someone’s actual needs.
Initial preprocessing was done with used FlowJo v10 software (Treestar Inc., Wilmington, DE, USA). This was used for gating on cells by forward and side scatter, followed by gating of RFP-positive events (Figure 1) and exporting of gated data in FCS format. This step was preferable since it allowed one to convert data into a conventional FCS format (our flow cytometer import data in LMD file format) and to filter out off-target events such as system noise, cell debris, clumped and untransfected cells (without Kv1.3-RFP in our case). We also created a script for this preprocessing but found it more complicated and less robust than commercial software.
Filtered data were processed stepwise by a dedicated script, written in the Python programming language and available as a Jupyter notebook for running either on a local machine or in a kaggle data cloud (https://www.kaggle.com/georgesharonov/fcsgroupfit, accessed and executed on 14 November 2021). Data processing workflow was designed for high throughput analysis by processing all similar data in a single script execution. The processing steps were detailed within the notebook. […]

ChTx-GFP: hybrid protein, ChTx tagged N-terminally with eGFP, analogous to AgTx2-GFP; fluorescent probe
Kd [1]: 740 ± 170 pM | Slope, nonspecific binding ([2]; 1 nM labeled toxin + 316 nM ChTx, fitting of all events): 0.47 | Slope, nonspecific binding ([2]; 1 nM labeled toxin + 316 nM ChTx, fitting of reduced data): 0.25 | Slope (proportional to occupied receptor fraction) ([2]; 1 nM labeled toxin, fitting of all events): 0.55 | Slope (proportional to occupied receptor fraction) ([2]; 1 nM labeled toxin, fitting of reduced data): 0.56 | Slope, nonspecific binding ([2]; 10 nM labeled toxin + 316 nM ChTx, fitting of all events): 0.53 | Slope, nonspecific binding ([2]; 10 nM labeled toxin + 316 nM ChTx, fitting of reduced data): 0.21 | Slope (proportional to occupied receptor fraction) ([2]; 10 nM labeled toxin, fitting of all events): 0.87 | Slope (proportional to occupied receptor fraction) ([2]; 10 nM labeled toxin, fitting of reduced data): 0.84 | Kd ([2]; binding curve of direct titration, reduced data, nonspecific binding subtracted, flow cytometry, read-out: Kd (printed in Figure 4A)): 735 pM
